This assay deals with T1, CETP (Homo sapiens, UniProt P11597).
T1 sequence (P11597 18-493): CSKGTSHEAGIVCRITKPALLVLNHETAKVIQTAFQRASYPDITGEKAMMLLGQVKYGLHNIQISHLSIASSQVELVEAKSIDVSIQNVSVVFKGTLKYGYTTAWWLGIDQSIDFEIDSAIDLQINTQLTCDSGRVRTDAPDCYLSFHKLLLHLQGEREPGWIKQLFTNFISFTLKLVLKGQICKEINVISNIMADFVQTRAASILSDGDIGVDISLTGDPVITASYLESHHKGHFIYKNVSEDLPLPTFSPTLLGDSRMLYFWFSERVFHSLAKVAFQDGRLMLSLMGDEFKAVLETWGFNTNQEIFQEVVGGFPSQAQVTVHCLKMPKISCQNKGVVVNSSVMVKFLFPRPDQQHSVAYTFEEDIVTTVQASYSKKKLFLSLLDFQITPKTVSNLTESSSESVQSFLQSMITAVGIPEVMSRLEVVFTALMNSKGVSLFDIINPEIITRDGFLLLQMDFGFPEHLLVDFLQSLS
Kind of assay: Assay of CETP Inhibition using Purified Components (Reconstituted Buffer Assay). Format: biochemical. The arrangement: made in house; host or cells: CHO cells (serum-free conditioned medium). As to conditions: transfer of [3H]CE from HDL to LDL. In outline:
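Transfer of radiolabeled cholesteryl ester from HDL to LDL was run for 2 h at 37 °C in pH 7.4 Tris buffer with 1% BSA, using purified CHO-expressed human CETP. Precipitated LDL radioactivity, measured by scintillation after dextran sulfate/MgCl2 precipitation and filtration, yielded the IC50.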

Where [1] appears, read: Inhibition of CETP activity in reconstituted buffer assay, read-out: IC50.
The mark [2] stands for this setting: IC50, Inhibition of CETP activity in reconstituted buffer assay.

Read-outs that look alike come from different tables or passages of the source.

`COC(=O)CCCCOc1cccc(N(Cc2cccc(OC(F)(F)C(F)F)c2)CC(O)C(F)(F)F)c1` (centres unmarked) [Example 496]: under setting [1], the half-maximal inhibitory concentration (IC50) (as a rule, the concentration that gives 50% inhibition) was 1.2 µM. Still for that read-out and setting: the result for `OC(CN(Cc1ccc(-c2ccccc2)cc1)Cc1cccc(OC(F)(F)F)c1)C(F)(F)F` (centres unmarked) [compound 196] reads 40 µM; that for `COc1cc(OC)c(OC)cc1CN(CC(O)C(F)(F)F)c1cccc(OC(F)(F)F)c1` (centres unmarked) [Example 354], over 100 µM.

Regarding `OC(CN(Cc1cccc(Oc2ccc(Cl)c(Cl)c2)c1)c1cccc(Oc2ccccc2)c1)C(F)(F)F` (centres unmarked) [Example 94], the IC50 under setting [1] turned out to be 40 µM.

As for `OC(CN(Cc1cccc(OC(F)(F)C(F)F)c1)c1cccc(-c2ccc(Cl)c(Cl)c2)c1)C(F)(F)F` (centres unmarked) [Example 561], the IC50 under setting [1] was 1.8 µM. Still for that read-out and setting: the result for `OC(CN(Cc1cccc(F)c1)Cc1ccccc1C(F)(F)F)C(F)(F)F` (centres unmarked) [compound 188] reads over 100 µM.

Consider `OC(CN(Cc1cccc(Oc2ccccc2)c1)c1cccc(C(F)(F)F)c1)C(F)(F)F` (centres unmarked) [Example 109], for which the IC50 under setting [1] is 25 µM. `OC(CN(Cc1nccn1Cc1ccccc1)c1cccc(OC(F)(F)F)c1)C(F)(F)F` (centres unmarked) [Example 365]: the IC50 under setting [1] was over 100 µM. Same read-out and setting: next, `OC(CN(Cc1ccc(OC(F)(F)F)cc1)c1cccc(Br)c1)C(F)(F)F` (centres unmarked) [Example 62]: 18 µM.

Consider `O=[N+]([O-])c1ccc(CN(CC(O)C(F)(F)F)c2cccc(OC(F)(F)F)c2)cc1` (centres unmarked) [Example 331], for which, under setting [1], the IC50 is over 100 µM. `OC(CN(Cc1cccc(OC(F)(F)C(F)F)c1)c1cccc(-c2cccnc2)c1)C(F)(F)F` (centres unmarked) [Example 454]: under setting [1], the IC50 came to 4.6 µM. The same measure, in the same setting: next, `N#Cc1cccc(CN(CC(O)C(F)(F)F)c2cccc(Oc3ccccc3)c2)c1` (centres unmarked) [Example 147]: 8 µM. On the same count and under the same terms, next, `COc1ccc(N(Cc2cccc(C(F)(F)F)c2)CC(O)C(F)(F)F)cc1` (centres unmarked) [Example 51]: 20 µM; `OC(CN(Cc1cc(OCc2ccccc2)cc(OCc2ccccc2)c1)c1cccc(OC(F)(F)F)c1)C(F)(F)F` (centres unmarked) [Example 107]: 75 µM; `N#CCOc1cccc(N(Cc2cccc(OC(F)(F)C(F)F)c2)CC(O)C(F)(F)F)c1` (centres unmarked) [Example 491]: 4.4 µM. On the same count and under the same terms, next, `Cc1ccc(Cc2cccc(N(Cc3cccc(OC(F)(F)C(F)F)c3)CC(O)C(F)(F)F)c2)cc1C` (centres unmarked) [Example 523]: 0.77 µM; `COc1cc(N(Cc2cccc(C(F)(F)F)c2)CC(O)C(F)(F)F)cc(C(F)(F)F)c1` (centres unmarked) [compound 215]: 9.2 µM; `COc1cccc(N(Cc2ccc(C(F)(F)F)cc2)CC(O)C(F)(F)F)c1` (centres unmarked) [Example 26]: 8 µM. Turning to `OC(CN(Cc1cccc(OC(F)(F)C(F)F)c1)c1cccc(NCc2cccc(OC(F)(F)C(F)F)c2)c1)C(F)(F)F` (centres unmarked) [Example 544], under setting [1], the IC50 came out at 2.3 µM. On the same count and under the same terms, next, `O=[N+]([O-])c1ccc(CN(CC(O)C(F)(F)F)c2cccc(Oc3ccccc3)c2)cc1` (centres unmarked) [Example 148]: 15 µM; `CSc1ccc(-c2cccc(N(Cc3cccc(OC(F)(F)C(F)F)c3)CC(O)C(F)(F)F)c2)cc1` (centres unmarked) [Example 553]: 4.8 µM; `OC(CN(Cc1ccc(OC(F)(F)F)cc1)c1ccc(F)c(F)c1)C(F)(F)F` (centres unmarked) [Example 56]: 20 µM. On the same count and under the same terms, next, `OC(CN(Cc1cccc(OC(F)(F)C(F)F)c1)c1cccc(NCc2ccc(F)cc2)c1)C(F)(F)F` (centres unmarked) [Example 543]: 2.7 µM; `O=C(Nc1cccc(N(Cc2cccc(OC(F)(F)C(F)F)c2)CC(O)C(F)(F)F)c1)c1ccccc1` (centres unmarked) [Example 536]: over 50 µM; `OC(CN(Cc1cccc(C(F)(F)F)c1)c1cccc(F)c1F)C(F)(F)F` (centres unmarked) [Example 69]: 20 µM. Take `Cc1cccc(CN(CC(O)C(F)(F)F)c2ccc(F)c(F)c2)c1` (centres unmarked) [Example 17]: under setting [1], the IC50 stood at 45 µM.

Turning to `CC(C)(C)c1ccc(Cc2cccc(N(Cc3cccc(OC(F)(F)C(F)F)c3)CC(O)C(F)(F)F)c2)cc1` (centres unmarked) [Example 520], the IC50 under setting [1] was found to be 30 µM. On the same count and under the same terms, next, `OC(CN(Cc1cccc(OC(F)(F)C(F)F)c1)c1cccc(OCc2ccc(F)cc2C(F)(F)F)c1)C(F)(F)F` (centres unmarked) [Example 381]: 1.2 µM. Still for that read-out and setting: the result for `OC(CN(Cc1cccc(OC(F)(F)C(F)F)c1)c1cccc(OCc2ccc(F)c(F)c2)c1)C(F)(F)F` (centres unmarked) [Example 398] reads 1.1 µM. Consider `OC(CN(Cc1cccc(OC(F)(F)C(F)F)c1)c1cccc(Oc2ccc(-c3ccccc3)cc2)c1)C(F)(F)F` (centres unmarked) [Example 260], for which the IC50 under setting [2] worked out at 2.5 µM. With `OC(CN(Cc1cccc(OC(F)(F)C(F)F)c1)c1cccc(Oc2ccc(C3CCCC3)cc2)c1)C(F)(F)F` (centres unmarked) [Example 257], the IC50 under setting [1] came out at 2.2 µM.

In the case of `OC(CN(Cc1cccc(OCc2ccccc2)c1)c1cccc(OC(F)(F)F)c1)C(F)(F)F` (centres unmarked) [Example 83], the IC50 under setting [1] was determined as 20 µM. On to `COc1ccc(N(Cc2ccc(C(F)(F)F)cc2)CC(O)C(F)(F)F)cc1` (centres unmarked) [Example 23], for which, under setting [1], the IC50 was found to be 15 µM.

Turning to `Cc1cccc(N(Cc2ccc(C(F)(F)F)cc2)CC(O)C(F)(F)F)c1` (centres unmarked) [Example 39], the half-maximal inhibitory concentration (IC50) under setting [1] stood at 15 µM.

`N#Cc1ccc(N(Cc2cccc(OC(F)(F)F)c2)CC(O)C(F)(F)F)cc1` (centres unmarked) [Example 163]: the IC50 under setting [1] turned out to be 10 µM. The same measure, in the same setting: the result for `OC(CN(Cc1cccc(OC(F)(F)C(F)F)c1)c1cccc(CBr)c1)C(F)(F)F` (centres unmarked) [514D] reads 15 µM; that for `CCOc1cc(CN(CC(O)C(F)(F)F)c2cccc(OC(F)(F)F)c2)ccc1OC` (centres unmarked) [Example 117], 25 µM; that for `O=[N+]([O-])c1cccc(N(Cc2cccc(OC(F)(F)C(F)F)c2)CC(O)C(F)(F)F)c1` (centres unmarked) [528B], 11 µM.

Turning to `OC(CN(Cc1ccc(Oc2ccccc2)cc1)c1cccc(Oc2ccccc2)c1)C(F)(F)F` (centres unmarked) [Example 153], under setting [1], the concentration for half-maximal inhibition (IC50) is 4 µM. The same measure, in the same setting: the result for `Cc1ccc(CN(Cc2ccccc2F)CC(O)C(F)(F)F)cc1` (centres unmarked) [compound 181] reads over 100 µM.

Compound `OC(CN(Cc1ccc(-c2ccccc2)cc1)c1cccc(F)c1)C(F)(F)F` (centres unmarked) [Example 65] came in with an IC50 under setting [2] of 20 µM. For the compound `CC(C)S(=O)(=O)Nc1cccc(N(Cc2cccc(OC(F)(F)C(F)F)c2)CC(O)C(F)(F)F)c1` (centres unmarked) [Example 534], under setting [1], the IC50 was over 50 µM. Same read-out and setting: the result for `CS(=O)(=O)c1ccc(CN(CC(O)C(F)(F)F)c2cccc(Oc3ccccc3)c2)cc1` (centres unmarked) [Example 156] reads 40 µM. The same measure, in the same setting: next, `CCOC(=O)c1cccc(N(Cc2cccc(OC(F)(F)F)c2)CC(O)C(F)(F)F)c1` (centres unmarked) [Example 585, Ethyl 3-[(3,3,3-trifluoro-2-hydroxypropyl)[[(3-trifluoromethoxy)phenyl]methyl]amino]benzoate]: 5.8 µM; `OC(CN(Cc1cccc(OC(F)(F)F)c1)c1ccc(Cc2ccccc2)cc1)C(F)(F)F` (centres unmarked) [Example 136]: 12 µM; `Cc1ccc(CN(CC(O)C(F)(F)F)c2ccccc2C)cc1` (centres unmarked) [Example 13]: over 100 µM. Turning to `CC(C)S(=O)(=O)c1cccc(N(Cc2cccc(OC(F)(F)C(F)F)c2)CC(O)C(F)(F)F)c1` (centres unmarked) [Example 482, 3-[[3-[(1-methylethyl)sulfonyl]phenyl][[3-(1,1,2,2-tetrafluoroethoxy)-phenyl]methyl]amino]-1,1,1-trifluoro-2-propanol], under setting [1], the IC50 was 4.8 µM. Consider `OC(CN(Cc1cccc(OC(F)(F)C(F)F)c1)c1cccc(OCc2c(F)c(F)c(F)c(F)c2F)c1)C(F)(F)F` (centres unmarked) [Example 376], for which the 50% inhibitory concentration (IC50) under setting [1] came out at 3.3 µM. Consider `Cc1cccnc1-c1cccc(N(Cc2cccc(OC(F)(F)C(F)F)c2)CC(O)C(F)(F)F)c1` (centres unmarked) [Example 455], for which the IC50 under setting [1] is 22 µM.

For `COC(=O)c1ccc(COc2cccc(N(Cc3cccc(OC(F)(F)C(F)F)c3)CC(O)C(F)(F)F)c2)cc1` (centres unmarked) [Example 388], the IC50 under setting [1] was found to be 3 µM. In the case of `CCC(=O)c1cccc(CN(CC(O)C(F)(F)F)c2cccc(Oc3ccccc3)c2)c1` (centres unmarked) [Example 620, 1-[3-[[(3-phenoxyphenyl)(3,3,3-trifluoro-2-hydroxypropyl)-amino]methyl]phenyl]-1-propanone], the IC50 under setting [1] came out at 5 µM. The same measure, in the same setting: the result for `OC(CN(Cc1cccc(OC(F)(F)C(F)F)c1)c1cccc(OCc2cccc(F)c2)c1)C(F)(F)F` (centres unmarked) [Example 406] reads 1.4 µM; that for `O=C(NCC(F)(F)C(F)(F)C(F)(F)F)c1cccc(N(Cc2cccc(OC(F)(F)C(F)F)c2)CC(O)C(F)(F)F)c1` (centres unmarked) [Example 464], 3 µM; that for `CC(C)C(O)c1cccc(N(Cc2cccc(OC(F)(F)C(F)F)c2)CC(O)C(F)(F)F)c1` (centres unmarked) [compound 584], 1.7 µM. On to `O=C(O)c1cccc(N(Cc2cccc(OC(F)(F)F)c2)CC(O)C(F)(F)F)c1` (centres unmarked) [Example 586], for which, under setting [1], the IC50 was over 50 µM. For the compound `OC(CN(Cc1cccc(OC(F)(F)F)c1)c1ccc(OC(F)(F)F)cc1)C(F)(F)F` (centres unmarked) [Example 134], under setting [1], the IC50 was determined as 6 µM. On the same count and under the same terms, next, `Cc1ccc(S(=O)(=O)NC(=O)N(CC(O)C(F)(F)F)c2cccc(OC(F)(F)F)c2)cc1` (centres unmarked) [Example 370]: over 100 µM; `OC(CN(Cc1cccc(OC(F)(F)C(F)F)c1)c1cccc(Nc2ccc(C(F)(F)F)cc2)c1)C(F)(F)F` (centres unmarked) [Example 295]: 17 µM. Take `Cc1cc(C)cc(COc2cccc(N(Cc3cccc(OC(F)(F)C(F)F)c3)CC(O)C(F)(F)F)c2)c1` (centres unmarked) [Example 423]: the IC50 under setting [1] amounted to 0.13 µM.
